Where “and” joins values, the source holds several entries; their conditions need not be identical. Equal values may be shown once. Where a name gives a salt, the structure may show the parent alone. Read-outs that look alike come from different tables or passages of the source.
Legend:
[1] = test system: influenza A2; format: in vivo, NMRI mice; conditions: twice daily over 2.5 days; for Number of surviving animals: groups of 5 mice
[2] = in vitro; conditions: hela and vero cells
[3] = test system: Herpes simplex Type 1; assay: Herpes simplex Type 1 infection of NMRI mice, survival; format: in vivo; conditions: twice daily over 2.5 days; for Surviving animals: groups of 5 mice
Protocol: Pathogen-free NMRI mice having a weight of about 15 g were infected intraperitoneally with Herpes simplex Type 1 and then treated intraperitoneally, orally or subcutaneously with the compounds mentioned in Table 1. The treatment was carried out twice daily over the course of 2.5 days, starting after infection. The result of treatment was determined on the basis of the course of the disease and the survival rate compared to the untreated infection controls. The controls received a water-solublemethylhydroxyethylcellulose (viscosity […], administered in 2% strength solution) instead of the compounds to be tested. The experiments were carried out using groups of 5 mice each per preparation.
The chemotherapeutic action of the compound A can be seen from Table 1.

[4] = test system: myxoviruses (influenza A2); assay: microbe, parasite or virus in culture; format: cell-based, influenza A2 virus in Hela and Vero cells; conditions: read-out: MIC (minimum inhibitory concentration)
[5] = test system: viruses; conditions: literature; cited from earlier work
[6] = literature; cited from earlier work

In the case of `CCOP(=O)(O)Cc1ccccc1C=O` [C, monoethyl 2-formylbenzylphosphonate triethylammonium salt], the “Number of surviving animals” value ([1]; po, 0.25 mg/kg) is reported as 5, the Average survival time ([1]; po, 2.5 mg/kg) is reported as 6.0 days and the “Number of surviving animals” value ([1]; po, 2.5 mg/kg) is reported as 2. For the same compound, the “Number of surviving animals” value ([1]; po, 25 mg/kg) was 5, the “Number of surviving animals” value ([1]; sc, 0.25 mg/kg) was 5 and the “Number of surviving animals” value ([1]; sc, 2.5 mg/kg) was 5. For the same compound, the Average survival time ([1]; sc, 25 mg/kg) was 7.5 days, the “Number of surviving animals” value ([1]; sc, 25 mg/kg) was 3 and the MNTC [2] was greater than 400 µg/mL. It also gave an Average survival time ([3]; po, 3 mg/kg) of 9.0 days, a Surviving animals ([3]; po, 3 mg/kg) of 4 and an Average survival time ([3]; po, 10 mg/kg) of 8.0 days. It also gave a Surviving animals ([3]; po, 10 mg/kg) of 3, an Average survival time ([3]; po, 30 mg/kg) of 8.3 days and a Surviving animals ([3]; po, 30 mg/kg) of 1. The Average survival time ([3]; sc, 3 mg/kg) was 8.5 days, the Surviving animals ([3]; sc, 3 mg/kg) was 1 and the Average survival time ([3]; sc, 10 mg/kg) was 8.0 days. The Surviving animals ([3]; sc, 10 mg/kg) was 3, the Average survival time ([3]; sc, 30 mg/kg) was 10.0 days and the Surviving animals ([3]; sc, 30 mg/kg) was 4. For the same compound, the MIC [4] was 44.4 µg/mL.

With `CCOP(=O)(Cc1ccccc1C=O)OCC` [A, diethyl 2-formylbenzylphosphonate] the Average survival time ([1]; po, 2.5 mg/kg) was 9.0 days, the “Number of surviving animals” value ([1]; po, 2.5 mg/kg) was 4 and the Average survival time ([1]; po, 3 mg/kg) was 8.0 days. For the same compound, the “Number of surviving animals” value ([1]; po, 3 mg/kg) was 4, the Average survival time ([1]; po, 10 mg/kg) was 7.0 days and the “Number of surviving animals” value ([1]; po, 10 mg/kg) was 4. The Average survival time ([1]; po, 25 mg/kg) was 6.3 days, the “Number of surviving animals” value ([1]; po, 25 mg/kg) was 2 and the Average survival time ([1]; po, 30 mg/kg) was 7.3 days. The “Number of surviving animals” value ([1]; po, 30 mg/kg) was 2, the Average survival time ([1]; sc, 2.5 mg/kg) was 6.7 days and the “Number of surviving animals” value ([1]; sc, 2.5 mg/kg) was 2. The Average survival time ([1]; sc, 25 mg/kg) was 7.0 days, the “Number of surviving animals” value ([1]; sc, 25 mg/kg) was 3 and the Average survival time ([3]; ip, 3 mg/kg) was 8.0 days. For the same compound, the Surviving animals ([3]; ip, 3 mg/kg) was 0, the Average survival time ([3]; ip, 10 mg/kg) was 9.0 days and the Surviving animals ([3]; ip, 10 mg/kg) was 4. It also gave an Average survival time ([3]; ip, 30 mg/kg) of 8.5 days, a Surviving animals ([3]; ip, 30 mg/kg) of 3 and an Average survival time ([3]; po, 2.5 mg/kg) of 8.0 days. The Surviving animals ([3]; po, 2.5 mg/kg) was 4, the Surviving animals ([3]; po, 25 mg/kg) was 5 and the Average survival time ([3]; po, 250 mg/kg) was 8.0 days. The Surviving animals ([3]; po, 250 mg/kg) was 4, the Average survival time ([3]; sc, 2.5 mg/kg) was 9.0 days and the Surviving animals ([3]; sc, 2.5 mg/kg) was 2. The Average survival time ([3]; sc, 25 mg/kg) was 7.2 days, the Surviving animals ([3]; sc, 25 mg/kg) was 0 and the Average survival time ([3]; sc, 250 mg/kg) was 8.4 days. For the same compound, the Surviving animals ([3]; sc, 250 mg/kg) was 0.

For `O=C(O)P(=O)(O)O` [PFA, phosphonoformic acid], the antiviral activity [5] is listed as “wide antiviral spectrum” and the toxic side effects [6] is listed as “some toxic side effects”.

In the case of `O=Cc1ccccc1CP(=O)(O)O` [B, 2-formylbenzylphosphonic acid di(triethylammonium) salt], the Average survival time ([1]; po, 1.5 mg/kg) is reported as 8.5 days, the “Number of surviving animals” value ([1]; po, 1.5 mg/kg) is reported as 3 and the “Number of surviving animals” value ([1]; po, 15 mg/kg) is reported as 5. For the same compound, the Average survival time ([1]; po, 150 mg/kg) was 7.0 days, the “Number of surviving animals” value ([1]; po, 150 mg/kg) was 3 and the Average survival time ([1]; sc, 1.5 mg/kg) was 8.5 days. For the same compound, the “Number of surviving animals” value ([1]; sc, 1.5 mg/kg) was 1, the Average survival time ([1]; sc, 15 mg/kg) was 8.0 days and the “Number of surviving animals” value ([1]; sc, 15 mg/kg) was 4. It also gave an MNTC [2] greater than 400 µg/mL, an Average survival time ([3]; po, 3 mg/kg) of 7.0 days and a Surviving animals ([3]; po, 3 mg/kg) of 3. It also gave an Average survival time ([3]; po, 10 mg/kg) of 8.3 days, a Surviving animals ([3]; po, 10 mg/kg) of 2 and an Average survival time ([3]; po, 30 mg/kg) of 6.0 days. It also gave a Surviving animals ([3]; po, 30 mg/kg) of 3, an Average survival time ([3]; sc, 3 mg/kg) of 7.8 days and a Surviving animals ([3]; sc, 3 mg/kg) of 2. The Average survival time ([3]; sc, 10 mg/kg) was 7.0 days, the Surviving animals ([3]; sc, 10 mg/kg) was 3 and the Average survival time ([3]; sc, 30 mg/kg) was 6.5 days. For the same compound, the Surviving animals ([3]; sc, 30 mg/kg) was 3 and the MIC [4] was 4.94 µg/mL.

In the case of `CCOP(=O)(Cc1ccccc1C=NNC(=O)c1cccnc1)OCC` [E, Diethyl 2-formylbenzylphosphonate nicotinic acid hydrazone], the Average survival time ([1]; po, 0.25 mg/kg) is reported as 8.0 days, the “Number of surviving animals” value ([1]; po, 0.25 mg/kg) is reported as 4 and the Average survival time ([1]; po, 2.5 mg/kg) is reported as 6.7 days. The “Number of surviving animals” value ([1]; po, 2.5 mg/kg) was 3, the Average survival time ([1]; po, 25 mg/kg) was 6.0 days and the “Number of surviving animals” value ([1]; po, 25 mg/kg) was 3.

In the case of `NC12CC3CC(CC(C3)C1)C2` [Amantadine, reference compound], the Average survival time ([1]; po, 80 mg/kg) is reported as 8.0 days, the “Number of surviving animals” value ([1]; po, 80 mg/kg, 80 mg/kg) is reported as 5 and 4 and the “Number of surviving animals” value ([1]; sc, 80 mg/kg) is reported as 5.

For `O=C(O)CP(=O)(O)O` [PAA, phosphonoacetic acid], the antiviral activity [5] is listed as “exhibit antiviral activity”.

In the case of `CCOP(=O)(Cc1ccccc1C1O[C@H](c2ccccc2)[C@H](C)N1C)OCC` (single isomer, unassigned) [F, Diethyl 2-(3,4-dimethyl-5-phenyloxazolidin-2-yl)benzylphosphonate], the Average survival time ([1]; po, 0.25 mg/kg) is reported as 6.5 days, the “Number of surviving animals” value ([1]; po, 0.25 mg/kg) is reported as 3 and the Average survival time ([1]; po, 2.5 mg/kg) is reported as 6.5 days. The “Number of surviving animals” value ([1]; po, 2.5 mg/kg) was 3, the Average survival time ([1]; po, 25 mg/kg) was 7.0 days and the “Number of surviving animals” value ([1]; po, 25 mg/kg) was 2.

With `CCOP(=O)(Cc1ccccc1C=NNC(N)=S)OCC` [D, Diethyl 2-formylbenzylphosphonate thiosemicarbazone] the Average survival time ([1]; po, 0.25 mg/kg) was 8.0 days, the “Number of surviving animals” value ([1]; po, 0.25 mg/kg) was 4 and the Average survival time ([1]; po, 2.5 mg/kg) was 7.0 days. For the same compound, the “Number of surviving animals” value ([1]; po, 2.5 mg/kg) was 1, the Average survival time ([1]; po, 25 mg/kg) was 7.3 days and the “Number of surviving animals” value ([1]; po, 25 mg/kg) was 2.

For `O=P(O)(O)CP(=O)(O)O` [MDP, methylenediphosphonic acid], the antiviral activity [5] is given as “exhibit antiviral activity”.

— patent publication US5278152A, “2-formylbenzylphosphonic acid derivatives useful for the treatment of diseases caused by viruses” (priority 1989, dated 1994)
